PubChem BioAssay AID248 (DTP/NCI, 2004)
Where “and” joins values, the source holds several entries; their conditions need not be identical. Equal entries are not always repeated. Inconclusive results and toxic doses are left out. No stated cut-off is given here; in the data, active means T/C of 150% or more; inactive means T/C below 125%.

System: L1210 leukemia ip in BDF1 mice, survival T/C
Assay: NCI In Vivo Anticancer Drug Screen. Data for tumor model L1210 Leukemia (intraperitoneal) in B6D2F1 (BDF1) mice
Settings: endpoint: mean survival time, higher = longer survival
Summary of the method: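 Tumor cells were implanted, animals were treated, and survival was followed. The result divides the treated measurement by the vehicle-control measurement.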

[1] = dose: 100.0 mg/kg/injection, schedule: Q04DX002 (ip), vehicle: Klucel (hydroxypropylcellulose) (HPC)
[2] = dose: 200.0 mg/kg/injection, schedule: Q04DX002 (ip), vehicle: Klucel (hydroxypropylcellulose) (HPC)
[3] = dose: 400.0 mg/kg/injection, schedule: Q04DX002 (ip), vehicle: Klucel (hydroxypropylcellulose) (HPC)
[4] = dose: 100.0 mg/kg/injection, schedule: Q04DX003 (ip), vehicle: saline
[5] = dose: 200.0 mg/kg/injection, schedule: Q04DX003 (ip), vehicle: saline
[6] = dose: 400.0 mg/kg/injection, schedule: Q04DX003 (ip), vehicle: saline
[7] = dose: 100.0 mg/kg/injection, schedule: Q01DX001 (ip), vehicle: saline
[8] = dose: 200.0 mg/kg/injection, schedule: Q01DX001 (ip), vehicle: saline
[9] = dose: 400.0 mg/kg/injection, schedule: Q01DX001 (ip), vehicle: saline
[10] = dose: 100.0 mg/kg/injection, schedule: Q01DX009 (ip), vehicle: saline with Tween-80
[11] = dose: 200.0 mg/kg/injection, schedule: Q01DX009 (ip), vehicle: saline with Tween-80

Measured: T/C

CNC(=O)Oc1ccc(C2CCCCC2)cc1
inactive: dose: 100.0 mg/kg/injection, schedule: Q01DX001 (ip), vehicle: carboxymethylcellulose (CMC) 99 % of control | dose: 100.0 mg/kg/injection, schedule: Q01DX009 (ip), vehicle: carboxymethylcellulose (CMC) 93 % of control and 103 % of control | [1] 97 % of control | dose: 100.0 mg/kg/injection, schedule: Q04DX002 (ip), vehicle: carboxymethylcellulose (CMC) 95 % of control and 101 % of control | dose: 100.0 mg/kg/injection, schedule: Q04DX003 (ip), vehicle: carboxymethylcellulose (CMC) 94 % of control | dose: 200.0 mg/kg/injection, schedule: Q01DX001 (ip), vehicle: carboxymethylcellulose (CMC) 90 % of control | dose: 200.0 mg/kg/injection, schedule: Q01DX009 (ip), vehicle: carboxymethylcellulose (CMC) 93 % of control and 95 % of control | [2] 97 % of control | dose: 200.0 mg/kg/injection, schedule: Q04DX002 (ip), vehicle: carboxymethylcellulose (CMC) 101 % of control and 108 % of control | dose: 200.0 mg/kg/injection, schedule: Q04DX003 (ip), vehicle: carboxymethylcellulose (CMC) 94 % of control | dose: 400.0 mg/kg/injection, schedule: Q01DX001 (ip), vehicle: carboxymethylcellulose (CMC) 92 % of control | dose: 400.0 mg/kg/injection, schedule: Q01DX009 (ip), vehicle: carboxymethylcellulose (CMC) 98 % of control and 100 % of control | [3] 100 % of control | dose: 400.0 mg/kg/injection, schedule: Q04DX002 (ip), vehicle: carboxymethylcellulose (CMC) 95 % of control and 101 % of control | dose: 400.0 mg/kg/injection, schedule: Q04DX003 (ip), vehicle: carboxymethylcellulose (CMC) 100 % of control

CCOC(=O)C(C)(C)CCC(C)(C)C(=O)OCC
inactive: [1] 97 % of control | [2] 103 % of control | [3] 90 % of control

CCN(CC)CCOC(=O)C1C2CC3OC(=O)C1C3C2 (stereo not given)
inactive: [4] 108 % of control | [5] 95 % of control | [6] 92 % of control

CC(=O)OC1(c2ccccc2)OC(=O)C(C)(C)c2ccccc21 (stereo not given)
inactive: dose: 100.0 mg/kg/injection, schedule: Q01DX001 (ip), vehicle: saline with Tween-80 94 % of control | dose: 200.0 mg/kg/injection, schedule: Q01DX001 (ip), vehicle: saline with Tween-80 91 % of control

C=CSCCCC(C)=O
inactive: dose: 100.0 mg/kg/injection, schedule: Q01DX001 (ip), vehicle: Klucel (hydroxypropylcellulose) (HPC) 97 % of control | dose: 200.0 mg/kg/injection, schedule: Q01DX001 (ip), vehicle: Klucel (hydroxypropylcellulose) (HPC) 103 % of control | dose: 400.0 mg/kg/injection, schedule: Q01DX001 (ip), vehicle: Klucel (hydroxypropylcellulose) (HPC) 101 % of control

CCOC(=O)/C(C#N)=C\c1ccc2n1Cc1cc3c(cc1N(C(C)=O)C2)OCO3
inactive: dose: 25.0 mg/kg/injection, schedule: Q04DX002 (ip), vehicle: Klucel (hydroxypropylcellulose) (HPC) 102 % of control | dose: 50.0 mg/kg/injection, schedule: Q04DX002 (ip), vehicle: Klucel (hydroxypropylcellulose) (HPC) 95 % of control | [1] 98 % of control

Cc1cc(SCc2ccccc2)cc(C)[o+]1
inactive: [7] 98 % of control | [8] 98 % of control | [9] 107 % of control

CN(C)c1ccc(C2NC(c3ccccc3)c3c(ccc4ccccc34)O2)cc1 (stereo not given)
inactive: [7] 92 % of control | [4] 90 % of control | [8] 89 % of control | [9] 89 % of control | [6] 90 % of control

O=C1NC(C(=O)O)CC1O (stereo not given)
inactive: dose: 50.0 mg/kg/injection, schedule: Q01DX001 (ip), vehicle: saline 100 % of control | [7] 95 % of control and 97 % of control | [8] 98 % of control and 88 % of control | [9] 97 % of control

CCOC(=O)CNC(=O)N(CCCl)N=O
inactive: dose: 150.0 mg/kg/injection, schedule: Q01DX Z (ip), vehicle: carboxymethylcellulose (CMC) 102 % of control | dose: 250.0 mg/kg/injection, schedule: Q01DX Z (ip), vehicle: carboxymethylcellulose (CMC) 112 % of control

COC(=O)C(N)C(C)C (stereo not given)
inactive: dose: 25.0 mg/kg/injection, schedule: Q01DX009 (ip), vehicle: water 100 % of control | dose: 25.0 mg/kg/injection, schedule: Q04DX003 (ip), vehicle: water 106 % of control | dose: 50.0 mg/kg/injection, schedule: Q01DX009 (ip), vehicle: water 102 % of control | dose: 50.0 mg/kg/injection, schedule: Q04DX003 (ip), vehicle: water 104 % of control | dose: 100.0 mg/kg/injection, schedule: Q01DX009 (ip), vehicle: water 102 % of control | dose: 100.0 mg/kg/injection, schedule: Q04DX003 (ip), vehicle: water 114 % of control | dose: 200.0 mg/kg/injection, schedule: Q01DX009 (ip), vehicle: water 103 % of control | dose: 200.0 mg/kg/injection, schedule: Q04DX003 (ip), vehicle: water 101 % of control | dose: 400.0 mg/kg/injection, schedule: Q01DX009 (ip), vehicle: water 100 % of control | dose: 400.0 mg/kg/injection, schedule: Q04DX003 (ip), vehicle: water 104 % of control

NC(N)=N/N=C/c1cccs1
inactive: dose: 15.0 mg/kg/injection, schedule: Q01DX Z (oral), vehicle: saline 90 % of control | dose: 30.0 mg/kg/injection, schedule: Q01DX Z (ip), vehicle: saline 90 % of control | dose: 30.0 mg/kg/injection, schedule: Q01DX Z (oral), vehicle: saline 92 % of control | dose: 60.0 mg/kg/injection, schedule: Q01DX Z (oral), vehicle: saline 92 % of control

O=C(Nc1ccccc1C(F)(F)F)N(Cc1ccccc1)c1ccccc1
inactive: dose: 100.0 mg/kg/injection, schedule: Q01DX009 (ip), vehicle: Klucel (hydroxypropylcellulose) (HPC) 93 % of control | dose: 200.0 mg/kg/injection, schedule: Q01DX009 (ip), vehicle: Klucel (hydroxypropylcellulose) (HPC) 92 % of control | dose: 400.0 mg/kg/injection, schedule: Q01DX009 (ip), vehicle: Klucel (hydroxypropylcellulose) (HPC) 98 % of control

CC(C)(Cl)CCl
inactive: [10] 106 % of control | dose: 100.0 mg/kg/injection, schedule: Q04DX003 (ip), vehicle: saline with Tween-80 101 % of control | [11] 89 % of control | dose: 200.0 mg/kg/injection, schedule: Q04DX003 (ip), vehicle: saline with Tween-80 98 % of control

c1ccc(OP2OCCO2)cc1
inactive: dose: 50.0 mg/kg/injection, schedule: Q01DX009 (ip), vehicle: saline 92 % of control | dose: 50.0 mg/kg/injection, schedule: Q04DX003 (ip), vehicle: saline 105 % of control | dose: 100.0 mg/kg/injection, schedule: Q01DX009 (ip), vehicle: saline 102 % of control | [4] 102 % of control | dose: 200.0 mg/kg/injection, schedule: Q01DX009 (ip), vehicle: saline 92 % of control | [5] 103 % of control

CSc1ncnc2c1ncn2N(CCCl)C(C)=O
inactive: dose: 25.0 mg/kg/injection, schedule: Q01DX001 (ip), vehicle: other 96 % of control | dose: 25.0 mg/kg/injection, schedule: Q01DX009 (ip), vehicle: other 101 % of control | dose: 25.0 mg/kg/injection, schedule: Q04DX003 (ip), vehicle: other 100 % of control | dose: 50.0 mg/kg/injection, schedule: Q01DX001 (ip), vehicle: other 98 % of control | dose: 50.0 mg/kg/injection, schedule: Q01DX009 (ip), vehicle: other 105 % of control | dose: 50.0 mg/kg/injection, schedule: Q04DX003 (ip), vehicle: other 103 % of control | dose: 100.0 mg/kg/injection, schedule: Q01DX001 (ip), vehicle: other 96 % of control and 105 % of control | dose: 100.0 mg/kg/injection, schedule: Q01DX009 (ip), vehicle: other 97 % of control | dose: 100.0 mg/kg/injection, schedule: Q04DX003 (ip), vehicle: other 102 % of control

Cc1cscc(C)c1=S
inactive: dose: 6.25 mg/kg/injection, schedule: Q01DX009 (ip), vehicle: saline + alcohol 106 % of control | dose: 12.5 mg/kg/injection, schedule: Q01DX009 (ip), vehicle: saline + alcohol 105 % of control | dose: 25.0 mg/kg/injection, schedule: Q01DX009 (ip), vehicle: saline + alcohol 92 % of control

CCCCC(OC(=O)c1ccc([N+](=O)[O-])cc1)C(C)[N+](=O)[O-] (stereo not given)
inactive: [10] 94 % of control | [11] 97 % of control | dose: 400.0 mg/kg/injection, schedule: Q01DX009 (ip), vehicle: saline with Tween-80 92 % of control
